Test results taken from ChEMBL document CHEMBL1145381, “Synthesis and antiviral property of allophenylnorstatine-based HIV protease inhibitors incorporating D-cysteine derivatives as P2/P3 moieties” (Bioorg Med Chem Lett, 2007).
Values belong to the compound of their own block, whether it stands above or below them.

Assays:
[1] = Inhibition of HIV protease; set-up: species or system Human immunodeficiency virus
[2] = tested on: Human immunodeficiency virus; assay: Inhibition of HIV protease at 1 nM
[3] = tested on: Human immunodeficiency virus 1; assay: Antiviral activity against nelfinavir-resistant HIV1 NL432; type: functional, organism-based; details: Human immunodeficiency virus 1, NL432
[4] = Cytotoxicity against MT4 cells by MTT assay; type: cell-based; details: human, read-out: LC50 (the source's name)
[5] = tested on: Human immunodeficiency virus 1; assay: Antiviral activity against ritonavir and nelfinavir-resistant HIV1 NL432; type: functional, organism-based; details: Human immunodeficiency virus 1, NL432
[6] = tested on: Human immunodeficiency virus 1; assay: Antiviral activity against HIV1 NL432; type: functional, organism-based; details: Human immunodeficiency virus 1, NL432
[7] = tested on: Human immunodeficiency virus 1; assay: Antiviral activity against HIV1 3B in MT4 cells by MTT assay; type: functional, organism-based; details: Human immunodeficiency virus 1, 3B
[8] = Selectivity index, Ratio of LC50 for MT4 cells to EC50 for HIV1 3B; type: functional
[9] = tested on: Human immunodeficiency virus 1; assay: Antiviral activity against ritonavir-resistant HIV1 NL432; type: functional, organism-based; details: Human immunodeficiency virus 1, NL432

- IC50 [1]: 0.09 nM
- inhibition [2]: 98%
Compound: Cc1ccccc1CNC(=O)[C@H]1N(C(=O)[C@@H](O)[C@H](Cc2ccccc2)NC(=O)C(CS(=O)(=O)c2ccc3ccccc3c2)NS(C)(=O)=O)CSC1(C)C (stereo partly specified)

Compound: CC(=O)NC(CSc1ccc2ccccc2c1)C(=O)N[C@@H](Cc1ccccc1)[C@H](O)C(=O)N1CSC(C)(C)[C@H]1C(=O)NCc1ccccc1C (stereo partly specified)
- EC50 [3]: 7.2 nM
- CC50 [4]: 8300 nM
- EC50 [5]: 32 nM
- EC50 [6]: 17 nM
- EC50 [7]: 18 nM
- Selectivity index [8]: 461
- inhibition [2]: 53%
- EC50 [9]: 65 nM

Compound: CC(=O)NC(CS(=O)(=O)c1ccc2ccccc2c1)C(=O)N[C@@H](Cc1ccccc1)[C@H](O)C(=O)N1CSC(C)(C)[C@H]1C(=O)NCc1ccccc1C (stereo partly specified)
- CC50 [4]: 16000 nM
- IC50 [1]: 0.086 nM
- EC50 [7]: 28 nM
- Selectivity index [8]: 571
- inhibition [2]: 96%

Compound: CSC[C@H](NC(=O)COc1cccc2cnccc12)C(=O)N[C@@H](Cc1ccccc1)[C@H](O)C(=O)N1CSC[C@H]1C(=O)NC(C)(C)C
- CC50 [4]: > 30000 nM
- EC50 [7]: 22 nM
- Selectivity index [8]: >1363
- inhibition [2]: 40%

Compound: Cc1cc(C)c(NC(CSc2ccc3ccccc3c2)C(=O)N[C@@H](Cc2ccccc2)[C@H](O)C(=O)N2CSC(C)(C)[C@H]2C(=O)NCc2ccccc2C)c(C)c1 (stereo partly specified)
- EC50 [3]: 0.8 nM
- CC50 [4]: 6100 nM
- EC50 [5]: 23 nM
- EC50 [6]: 17 nM
- EC50 [7]: 13 nM
- Selectivity index [8]: 469
- inhibition [2]: 67%
- EC50 [9]: 31 nM

Compound: COc1ccc(CSC[C@@H](NC(C)=O)C(=O)N[C@@H](Cc2ccccc2)[C@H](O)C(=O)N2CSC(C)(C)[C@H]2C(=O)NCc2ccccc2C)cc1
- EC50 [3]: 2.4 nM
- CC50 [4]: 17000 nM
- EC50 [5]: 14 nM
- IC50 [1]: 0.18 nM
- EC50 [6]: 17 nM
- EC50 [7]: 13 nM
- Selectivity index [8]: 1308
- inhibition [2]: 87%
- EC50 [9]: 18 nM

Compound: Cc1c(O)cccc1C(=O)N[C@@H](CSc1ccccc1)[C@H](O)CN1C[C@H]2CCCC[C@H]2C[C@H]1C(=O)NC(C)(C)C
- EC50 [3]: 308 nM
- CC50 [4]: 11000 nM
- EC50 [5]: 67 nM
- EC50 [6]: 25 nM
- EC50 [7]: 16 nM
- Selectivity index [8]: 688
- inhibition [2]: 29%
- EC50 [9]: 28 nM

Compound: COc1ccc(CS(=O)(=O)C[C@@H](NC(C)=O)C(=O)N[C@@H](Cc2ccccc2)[C@H](O)C(=O)N2CSC(C)(C)[C@H]2C(=O)NCc2ccccc2C)cc1
- CC50 [4]: > 27000 nM
- EC50 [7]: 102 nM
- Selectivity index [8]: >265
- inhibition [2]: 59%

- IC50 [1]: 0.34 nM
Compound: CC(C)(C)NC(=O)c1ccccc1C[C@H](O)[C@@H](Cc1ccccc1)NC(=O)[C@H](CS(=O)(=O)c1ccc(Cl)cc1)NS(C)(=O)=O

- IC50 [1]: 0.083 nM
- inhibition [2]: 97%
Compound: Cc1ccccc1CNC(=O)[C@H]1N(C(=O)[C@@H](O)[C@H](Cc2ccccc2)NC(=O)C(CS(=O)(=O)c2cccc3ccccc23)NS(C)(=O)=O)CSC1(C)C (stereo partly specified)

Compound: CC(C)c1nc(CN(C)C(=O)N[C@H](C(=O)N[C@@H](Cc2ccccc2)C[C@H](O)[C@H](Cc2ccccc2)NC(=O)OCc2cncs2)C(C)C)cs1 [RITONAVIR]
- EC50 [5]: 162 nM
- EC50 [6]: 80 nM
- EC50 [7]: 36 nM
- inhibition [2]: 90%
- EC50 [9]: 220 nM

Compound: CC(=O)NC(CSc1cccc2ccccc12)C(=O)N[C@@H](Cc1ccccc1)[C@H](O)C(=O)N1CSC(C)(C)[C@H]1C(=O)NCc1ccccc1C (stereo partly specified)
- EC50 [3]: 6.3 nM
- CC50 [4]: 8000 nM
- EC50 [5]: 52 nM
- EC50 [6]: 70 nM
- EC50 [7]: 13 nM
- Selectivity index [8]: 471
- inhibition [2]: 68%
- EC50 [9]: 18 nM

Compound: Cc1cc(C)c(NC(CSc2cccc3ccccc23)C(=O)N[C@@H](Cc2ccccc2)[C@H](O)C(=O)N2CSC(C)(C)[C@H]2C(=O)NCc2ccccc2C)c(C)c1 (stereo partly specified)
- EC50 [3]: 0.67 nM
- CC50 [4]: 4400 nM
- EC50 [5]: 13 nM
- EC50 [6]: 9.3 nM
- EC50 [7]: 6.4 nM
- Selectivity index [8]: 688
- inhibition [2]: 74%
- EC50 [9]: 17 nM

Compound: CC(=O)NC(CS(=O)(=O)c1cccc2ccccc12)C(=O)N[C@@H](Cc1ccccc1)[C@H](O)C(=O)N1CSC(C)(C)[C@H]1C(=O)NCc1ccccc1C (stereo partly specified)
- CC50 [4]: 16000 nM
- IC50 [1]: 0.09 nM
- EC50 [7]: 40 nM
- Selectivity index [8]: 400
- inhibition [2]: 97%

Compound: COc1ccc(CS(=O)(=O)C[C@@H](Nc2c(C)cc(C)cc2C)C(=O)N[C@@H](Cc2ccccc2)[C@H](O)C(=O)N2CSC(C)(C)[C@H]2C(=O)NCc2ccccc2C)cc1
- CC50 [4]: > 26000 nM
- EC50 [7]: 203 nM
- Selectivity index [8]: >128
- inhibition [2]: 66%
